row,melting point [°C],Compound
1,> 300,"Nc1c(S(=O)(=O)c2ccc(O)cc2)c2nccnc2n2ccnc12 [Example 8, 5-[(4-Hydroxyphenyl)sulfonyl]-imidazo[1′,2′:1,6]pyrido[2,3-b]pyrazin-6-amine]"
2,269 to 270,"COc1ccc(S(=O)(=O)c2c(N)c3nccn3c3nccnc23)cc1 [Example 6, 5-[(4-methoxyphenyl)sulfonyl]-imidazo[1′,2′:1,6]pyrido[2,3-b]pyrazin-6-amine]"
3,> 300,"Cc1ccc(S(=O)(=O)c2c(N)c3nncn3c3nccnc23)cc1 [Example 2, 5-[(4-methylphenyl)sulfonyl]-[1,2,4]triazolo[4′,3′:1,6]pyrido[2,3-b]pyrazin-6-amine]"

# The remaining lines, values behind:
row,Compound,melting point [°C]
1,"Cc1ccc(S(=O)(=O)c2c(N)c3nccn3c3nccnc23)cc1 [Example 1, 5-[(4-Methylphenyl)sulfonyl]-imidazo[1′,2′:1,6]pyrido[2,3-b]pyrazin-6-amine]",294 to 295
2,"CCc1ccc(S(=O)(=O)c2c(N)c3nccn3c3nccnc23)cc1 [Example 3, 5-[(4-ethylphenyl)sulfonyl]-imidazo[1′,2′:1,6]pyrido[2,3-b]pyrazin-6-amine]",267.5 to 268.5
3,"CC(C)c1ccc(S(=O)(=O)c2c(N)c3nccn3c3nccnc23)cc1 [Example 4, 5-[(4-isopropylphenyl)sulfonyl]-imidazo[1′,2′:1,6]pyrido[2,3-b]pyrazin-6-amine]",241 to 244
4,"CCCc1ccc(S(=O)(=O)c2c(N)c3nccn3c3nccnc23)cc1 [Example 5, 5-[(4-propylphenyl)sulfonyl]-imidazo[1′,2′:1,6]pyrido[2,3-b]pyrazin-6-amine]",231 to 232

# From patent US6555538B2, “5-arylsulfonyl-imidazo[1′,2′:1,6]pyrido[2,3-b]pyrazine-6-amines and related compounds” (Pfizer Inc, priority 1999, dated 2003)
